Laboratory results reported in BindingDB's records for patent US10377770 (Novartis, 2019).

Target: RAF proto-oncogene serine/threonine-protein kinase [Y340E,Y341E] (Human, UniProt P04049, Y340E/Y341E)
Assay: Biological Assays
Source text: The activity of a compound according to the present invention can be assessed by well-known in vitro & in vivo methods. […] CRAF cDNA was subcloned as full length protein, with Y340E and Y341E activating mutations, into a baculovirus expression vector for Sf9 insect cell expression. h14-3-3 zeta cDNA was subcloned into a baculovirus expression vector for SF9 insect cell expression. Sf9 cells co-expressing both proteins were lysed and subjected to immobilized nickel chromatography and eluted with Imidazole. A second column (StrepII binding column) was used and eluted with desthiobiotin. Protein Tags were removed using Prescission enzyme and the protein was further purified using a flowthrough step to remove tags.C-Raf TR refers to a truncated C-Raf protein, a Δ1-324 deletion mutant. C-Raf FL refers to the full-length C-Raf protein.Full length MEK1 with an inactivating K97R ATP binding site mutation is utilized as a RAF substrate. The MEK1 cDNA was subcloned with an N-terminal (his)6 tag into a vector for E. Coli expression. The MEK1 substrate was purified from E. Coli lysate by nickel affinity chromatography followed by anion exchange. The final MEK1 preparation was biotinylated (Pierce EZ-Link Sulfo-NHS-LC-Biotin) and concentrated.Assay Materials: Assay buffer is 50 mM Tris, pH 7.5, 15 mM MgCl2, 0.01% Bovine Serum Albumin (BSA) and 1 mM dithiothreitol (DTT); Stop buffer is 60 mM ethylenediaminetetraacetic acid (EDTA) and 0.01% Tween 20; b-Raf (V600E), active; biotinylated Mek, kinase dead; Alpha Screen detection kit (available from PerkinElmer , #6760617R); Anti phospho-MEK1/2 (available from Cell Signaling Technology, Inc. #9121); 384 well low volume assay plates (White Greiner plates).Assay conditions: b-Raf (V600E) approximately 4 pM; c-Raf approximately 4 nM; biotinylated Mek, kinase dead approximately 10 nM; ATP 10 μM for BRAF (V600E) and 1 μM for CRAF; Pre-incubation time with compounds 60 minutes at room temperature; Reaction time 1 or 3 hours at room temperature.Assay protocol: Raf and biotinylated Mek (kinase dead) were combined at 2× final concentrations in assay buffer (50 mM Tris, pH 7.5, 15 mM MgCl2, 0.01% BSA and 1 mM DTT) and dispensed […] per well in assay plates (Greiner white 384 well assay plates #781207) containing […] of 40× of a Raf kinase inhibitor test compound diluted in 100% DMSO. The plate was incubated for 60 minutes at room temperature. The Raf kinase activity reaction was started by the addition of […] per well of 2×ATP diluted in assay buffer. After 3 hours (b-Raf(V600E)) or 1 hour (c-Raf). The reactions were stopped and the phosphorylated product was measured using a rabbit anti-p-MEK (Cell Signaling, #9121) antibody and the Alpha Screen IgG (ProteinA) detection Kit (PerkinElmer #6760617R), by the addition of […] to the well of a mixture of the antibody (1:2000 dilution) and detection beads (1:2000 dilution of both beads) in Stop/bead buffer (25 mM EDTA, 50 mM Tris, pH 7.5, 0.01% Tween20). The additions were carried out under dark conditions to protect the detection beads from light. A lid was placed on top of the plate and incubated for 1 hour at room temperature, after which the luminescence was read on a PerkinElmer Envision instrument.

Chain of RAF proto-oncogene serine/threonine-protein kinase [Y340E,Y341E] (P04049 whole entry Y340E/Y341E): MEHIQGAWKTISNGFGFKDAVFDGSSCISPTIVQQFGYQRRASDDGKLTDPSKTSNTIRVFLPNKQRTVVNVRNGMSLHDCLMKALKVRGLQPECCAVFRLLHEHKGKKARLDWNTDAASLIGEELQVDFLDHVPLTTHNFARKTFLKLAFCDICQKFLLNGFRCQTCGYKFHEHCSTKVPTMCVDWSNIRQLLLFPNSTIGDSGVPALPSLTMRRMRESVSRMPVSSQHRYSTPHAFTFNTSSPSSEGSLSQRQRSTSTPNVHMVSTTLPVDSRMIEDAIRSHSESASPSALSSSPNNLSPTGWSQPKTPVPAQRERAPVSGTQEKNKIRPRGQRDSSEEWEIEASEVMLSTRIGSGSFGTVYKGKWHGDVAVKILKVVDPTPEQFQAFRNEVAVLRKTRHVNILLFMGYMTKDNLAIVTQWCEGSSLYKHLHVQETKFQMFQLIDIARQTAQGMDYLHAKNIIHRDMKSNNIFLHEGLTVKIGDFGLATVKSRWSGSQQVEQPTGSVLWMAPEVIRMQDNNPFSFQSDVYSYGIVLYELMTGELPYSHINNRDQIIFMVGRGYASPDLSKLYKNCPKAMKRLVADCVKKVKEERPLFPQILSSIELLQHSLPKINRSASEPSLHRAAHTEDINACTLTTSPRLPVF

Structure (SMILES)	IC50
Cc1ccc(NC(=O)c2ccnc(C(F)(F)F)n2)cc1-c1ccc2c(c1)N1CCOC[C@H]1[C@](F)(CO)C2 [US10377770, Example 388]	0.4 nM
Cc1ccc(NC(=O)c2ccnc(C(F)(F)F)c2)cc1-c1cnc2c(c1)N1CCOCC1C1(COC1)C2 (racemic) [US10377770, Example 153]	0.005 nM
CCN1C(=O)[C@@H]2COCC[C@H]2c2cc(-c3cc(NC(=O)c4cnnc(C(F)(F)F)c4)ccc3C)cnc21 [US10377770, Example 257]	< 0.1 nM
CCN1C(=O)[C@H]2COCCN2c2cc(-c3cc(NC(=O)c4ccnc(C(F)(F)F)c4)ccc3C)nnc21 [US10377770, Example 134]	0.016 nM
Cc1ccc(NC(=O)c2ccnc(C(F)(F)F)c2)cc1-c1cnc2c(c1)[C@@H]1CCOC[C@H]1C(=O)N2CCO [US10377770, Example 258]	< 0.1 nM
CCN1C(=O)OC2COCCC2c2cc(-c3cc(NC(=O)c4cnnc(C(F)(F)F)c4)ccc3C)cnc21 (centres undefined) [US10377770, Example 301]	< 0.1 nM
Cc1ccc(NC(=O)c2ccnc(C(F)(F)F)c2)cc1-c1cnc2c(c1)N1CCOC[C@H]1CC(=O)N2CCO [US10377770, Example 333]	< 0.1 nM
Cc1ccc(NC(=O)c2ccnc(C(F)(F)F)c2)cc1-c1cnc2c(c1)C1CCOCCC1C(=O)N2CCO (centres undefined) [US10377770, Example 284]	< 0.1 nM
Cc1ccc(NC(=O)c2ccnc(C(F)(F)F)c2)cc1-c1ccc2c(c1)N1CCOC[C@@H]1[C@@](CO)(CF)C2 [US10377770, Example 405]	0.2 nM
Cc1ccc(NC(=O)c2ccnc(C(C)(F)F)c2)cc1-c1cnc2c(c1)C1CCOCCC1C(=O)N2CCO (centres undefined) [US10377770, Example 286]	< 0.1 nM
CCN1C(=O)[C@@H]2COCCN2c2cc(-c3cc(NC(=O)c4ccnc(C(F)(F)F)c4)ccc3C)nnc21 [US10377770, Example 133]	0.011 nM
Cc1ccc(NC(=O)c2ccnc(C(C)(F)F)c2)cc1-c1cnc2c(c1)[C@@H]1CCOC[C@H]1C(=O)N2CCO [US10377770, Example 267]	< 0.1 nM
CCN1C(=O)OC2COCCC2c2cc(-c3cc(NC(=O)c4ccnc(C(F)(F)F)c4)ccc3C)cnc21 (centres undefined) [US10377770, Example 297]	0.9 nM
Cc1ccc(NC(=O)c2cccc(C(F)(F)F)n2)cc1-c1ccc2c(c1)N1CCOC[C@H]1[C@](F)(CO)C2 [US10377770, Example 389]	0.5 nM
